Data on two compounds can be found in patent EP0908183A1, “Dehydroepiandrosterone or derivatives thereof for increasing the content of hyaluronic acid in skin” (INSTITUTE FOR ADVANCED SKIN RESEARCH INC., priority 1997, dated 1999).

The subject of series [1] is content of hyaluronic acid in skin. The series is described as follows: content of hyaluronic acid in skin of aging mice after application to dorsal skin. The class given is in vivo. The settings on record: aging mice Balb/c; for efficacy in increasing the content of hyaluronic acid in skin when combined with alimidex: DHEA administered simultaneously with aromatase inhibitor alimidex. An excerpt:
Dehydroepiandrosterone (DHEA) as an ethanol solution at a concentration of 10^-1M was applied to skin of the dorsal part of aging mice (Balb/c, 48 weeks old, in each group consisting of 6 animals) for 5 weeks.
To evaluate the reproducibility of its efficacy, DHEA was applied in various concentrations of 10^-1, 10^-2 and 10^-3M to aging mice (Balb/c, 53 weeks, in each group consisting of 8 animals). Further, in order to see whether DHEA became effective only after it was metabolized to estrodiol, alimidex that inhibited aromatase, which is an enzyme for causing a conversion to estrogens, was administered simultaneously with DHEA. […] This means the concentration of DHEA can be lowered to a tenth of the initial value.

The nature of series [2]: acute toxicity tests with mice. Conditions: mouse, in vivo. An excerpt:
It was confirmed that dehydroepiandrosterone (DHEA), which is used as an active ingredient in the present invention, was effective in increasing the hyaluronic acid content of skin to prevent and treat the symptoms of aging of skin. It was also confirmed that dehydroepiandrosterone was effective in inhibiting scar formation during the healing of an injury to skin. In addition, unlike retinoic acid which is teratogenic and estrogens that induce cardiovascular disorders, DHEA in its stable sulfate form has been commercialized as a drug that aids the process of childbirth and is used in clinical applications.

One may read the LD50 as the dose at which mortality reaches 50%. A high value points to lower toxicity. Consider `C[C@]12CC[C@H](O)CC1=CC[C@@H]1[C@@H]2CC[C@]2(C)C(=O)CC[C@@H]12` [DHEA, dehydroepiandrosterone], for which the “content of hyaluronic acid in skin” value was “statistically significant increase” in series [1] (10^-1M, 53 weeks, reproducibility experiment, Fig. 2); “statistically significant increase” in series [1] (10^-2M, 53 weeks, reproducibility experiment, Fig. 2); “increased the content of hyaluronic acid in skin with a statistically significant difference from the control group” in series [1] (ethanol solution 10^-1M applied to dorsal skin for 5 weeks, 48 weeks old, vs control group, Fig. 1). Further, the “efficacy in increasing the content of hyaluronic acid in skin when combined with alimidex” value in series [1] (53 weeks, Fig. 2) is recorded as “not suppressed”; in series [1] (53 weeks, Fig. 2, listed as dehydroepiandrosterone) it was “not lowered”. Besides, the LD50 in series [2] (iv, injected intravenously) is 274 mg/kg; in series [2] (po, peroral), no less than 10000 mg/kg; in series [2] (sc, injected subcutaneously) it was 899 mg/kg.

Regarding `CC(C)(C#N)c1cc(Cn2cncn2)cc(C(C)(C)C#N)c1` [alimidex, reference compound], the “content of hyaluronic acid in skin” value in series [1] (aromatase inhibitor applied alone, 53 weeks, Fig. 2) is given as “no ability to increase the content of hyaluronic acid”.
